Values quoted from earlier work, collected in US20090191194A1, “INHIBITION OF PROTEIN KINASE C ALPHA FOR THE TREATMENT OF CARDIOVASCULAR DISEASES” (Phenos GmbH, priority 2002, published 2009).
One block for each molecule: values may come before it.

Legend:
PKC-alpha = PKC-alpha (Homo sapiens, UniProt P17252); settings: higher TPA concentration, for example 1.6 μM
[1] = molecular target: cellular protein kinase C-alpha (Homo sapiens, UniProt P17252); settings: by changing the phosphorylation state of PKC-alpha
[2] = system: protein kinase C isoform beta II
[3] = system: protein kinase C isoform alpha
[4] = system: protein kinase C isoform beta I

Molecule: CCCCCCCCCCCCCC(=O)O[C@@H]1[C@@H](C)[C@@]2(O)[C@@H](C=C(CO)C[C@]3(O)C(=O)C(C)=C[C@@H]23)[C@@H]2C(C)(C)[C@]12OC(C)=O [TPA, 12-o-tetradecanoylphorbol-13-acetate]
PKC-alpha expression (PKC-alpha): completely inhibits

inactivation of cellular protein kinase C-alpha [1]: inactivate
Molecule: Cc1c(C)c2c(c(C)c1O)CC[C@@](C)(CCC[C@H](C)CCC[C@H](C)CCCC(C)C)O2 [alpha-tocopherol]

expression of protein kinase C isoform beta II [2]: reduces the expression
expression of protein kinase C isoform alpha [3]: reduces the expression
expression of protein kinase C isoform beta I [4]: reduces the expression
Molecule: cyclosporine A
